# Test results as given in US6979747B2, “Antioxidants, preparation processes and their uses” (Centre National de la Recherche Scientifique (CNRS), priority 1999, dated 2005).
# What was measured:
# [1] = test system: HIV-1/Ba-L; test: Antiviral activity in MDM cultures infected with HIV-1/Ba-L (RT activity in culture supernatants); assay type: cell-based; conditions: for viral replication (in words): treatment of MDMs 7 days after infection
# Procedure: A million monocytes in 1 ml of culture medium A are distributed in each well of a 48 well plate (Becton-Dickinson). The monocytes are left to differentiate into macrophages for 7 days. The macrophages thus differentiated are maintained in culture in medium A.
# The MDMs were infected with the reference isolate with macrophage tropism, HIV-1/Ba-L. The PBMCs and the PBLs were infected with the reference isolate with lymphocyte tropism HIV-1 LAI. The viral stock were formed by amplifying these strains in vitro using umbilical blood mononucleated cells (UBM(s) preactivated with 1 μg/ml of PHA-P and cultured in medium A supplemented by 20 IU/ml of IL-2. In order to remove the soluble factors, such as cytokines, the culture supernatants were ultracentrifuged at 360 000 g for 5 min, and the pellets were resuspended in RPMI 1640. The viral stocks thus formed were subsequently titred using PBMCs activated with PHA-P. The TCID50s (50% Tissue Culture Infectious Dose) were calculated using the Kärber formula.
# A million MDMs were infected with 10 000 TCID50s of the HIV-1/Ba-L strain. This amount of virus corresponds to a multiplicity of infection (m.o.i.) equal to 0.01. The excess of virus is removed 24 h after by washing with cells using RPMI 1640. The PBLs and the PBMCs were infected with 10 000 TCID50s of the HIV-1 LAI strain (moi=0.01). The cells were washed at the end of the second day of infection.
# (§1) The viral replication is measured by assaying the RT activity in the culture supernatants according to the technique described by F. Rey et al. (Biochem. Biophys. Res. Comm., 1984, 121, 126-133). The radioactivity incorporated during the extension of the complementary strand of a poly-rA synthetic matrix in the presence of an oligo-dT12-18 primer and of a radiolabeled substrate, [^3H-methyl]thymidine-5′-triphosphate ([^3H]TPP), makes it possible to assay the enzymatic activity of RT. 400 μl of supernatant are ultracentrifuged at 360 000 g for 5 min. The RT is released by lysis of the viral pellet in 20 μl of NTE-Triton (100 mM NaCl, 10 mM Tris, 1 mM EDTA, 0.1% Triton X-100). These 20 μl are subsequently incubated with 40 μl of the following reaction mixture: 62.5 mM Tris, pH 7.8; 25 mM KCl; 6.25 mM MgCl2; 1.25 mM dithiothreitol (DTT); 2.5×10^−3 ODU oligo-dT12-18 and poly-rA, 5.55×10^−3 TBq {^3H]TTP. After one hour at 37° C., the enzymatic reaction is halted and the newly synthesized strands are precipitated for 20 min at 4° C. by the addition of 1 ml of sodium pyrophosphate (NaPP), of 50 μl of yeast DNA (0.1 mg/ml in 5% trichluoroacetic acid (TCA)), and of 4 ml of 20% TCA. The mixture is filtered using a cellulose acetate membrane (Millipore) which retains the radiolabeled poly-dT chains. The filter is washed using 20 ml of 5% TCA and the residual water is removed by addition of 25 μl of 70% ethanol. The filter is dried in an oven for 10 minutes at 80° C. and is then introduced into vials containing 8 ml of liquid scintillant. The β radioactivity is quantified by means of a scintillation counter (Packard Bell). The results are expressed in pM of [^3H]-TMP incorporated/h/ml of supernatant or, more simply, in cpm/h/ml.
# The 50% effective doses (ED50) are calculated from the cumulative RT activities using the software “Dose-effects analysis with microcomputers” developed by J. Chou & T. C. Chou.
# [2] = test system: HIV-1/Ba-L; test: Production of p25 protein in supernatants of MDMs infected with HIV-1/Ba-L (ELISA); assay type: cell-based; conditions: infected MDM cultures
# Procedure: The assaying of the p25 protein is carried out using the ELISA kit from DuPont de Nemours. 200 μl of the culture supernatant to be tested are placed in a well of a microtitration plate. The addition of 20 μl of lysis buffer releases the viral proteins in the medium. The released antigen attaches to a mouse anti-p25 monoclonal antibody immobilized at the bottom of the wells. After incubating for 2 h at 37° C., 3 washing operations using 5 ml of washing buffer are carried out and then 100 μl of a biotinylated polyclonal antibody which reacts with the immobilized antigen are incubated for 1 h at 37° C. The series of 3 washing operations in the same buffer and with the same volume is again carried out before the addition over 15 min at 37° C. of 100 μl of Raifort-streptavidin peroxidase conjugate which will make it possible to amplify the colorimetric reaction. […] After incubating for 30 min at ambient temperature, the reaction is halted by the addition of 100 μl of 4N sulfuric acid. The OD of the coloring thus obtained is read at […]. This absorbence is directly proportional to the amount of attached antigen. The linear relationship relating the O.D. to the p25 concentration is established by virtue of a standard range produced from a recombinant p25 solution.
# [3] = molecular target: T1, RT of the HIV-1 LAI isolate (Human immunodeficiency virus type 1 group M subtype B, UniProt P03367); test: Acellular test of the enzymatic activity of RT; assay type: biochemical; conditions: acellular system
# T1 construct: The RT is released by lysis of the viral pellet in 20 μl of NTE-Triton; endogenous in cells; host or cells: Virions pelleted by ultracentrifugation from supernatants of infected cell cultures
# Procedure: as §1
# The I-152 molecule is composed of NAC and MEA, which are capable of inhibiting the activity of RT (A. Bergamini et al., J. Clin. Invest., 1994, 93, 2251-2257). For this reason, the inhibiting capacity of I-152 with respect to the RT activity was measured using an acellular test. This test was carried out according to the protocol described above (§ 3.3.3.1.). In the reaction mixture, only the 20 μl of water are replaced by 20 μl of a concentration of I-152 or of the reference compounds. Heparin, known for inhibiting the activity of RT and of the other DNA polymerases, is used as positive control for inhibition.
# [4] = test system: GSH; test: Intracellular GSH in MDMs infected with HIV-1/Ba-L; assay type: cell-based, human; conditions: MDMs with GSH deficiency after infection with HIV-1/Ba-L
# Procedure: The intracellular GSH was assayed by means of the assay kit sold by Cayman. This method for assaying glutathione is an adaptation of that described by O. W. Griffith et al. (1980).
# The compound I-152 and its derivatives are prepared extemporaneously by being dissolved in dimethyl sulfoxide (DMSO) at the concentration of 100 mM. They are subsequently stored at −20° C. after having been diluted 10 fold in phosphate buffer (PBS).
# [5] = ratio of inhibiting concentrations, MDMs, HIV-1/Ba-L
smiles,measurement,setting,value
"CC(=O)N[C@@H](CS)C(=O)NCCSC(C)=O [I-152, N-(N-acetyl-L-cysteinyl)-S-acetylcysteamine]",EC50,"[1]; Human immunodeficiency virus 1, BAL, MDMs infected with 10 000 TCID50s HIV-1/Ba-L (m.o.i. 0.01), read-out: inhibiting concentration (50% effective dose)",50 µM
same,antiviral activity (in words),"[1]; MDMs infected with HIV-1/Ba-L, compounds dissolved in medium A",strong antiviral activity superior to that of NAC or of MEA
same,times more effective than MEA,[1]; [5],6 times
same,times more effective than NAC,[1]; [5],188 times
same,antiviral activity (in words),"[1]; second series, compounds dissolved in DMSO then diluted, MDMs, HIV-1/Ba-L",the most effective in inhibiting viral replication
same,viral replication (in words),[1]; 250 μM,ineffective
same,viral replication (in words),[1]; 500 μM,viral replication is extinguished
same,production of the p25 protein (in words),[2],inhibition of the production of the p25 protein
same,inhibiting activity with respect to RT (in words),[3],do not exhibit an inhibiting activity
same,regeneration of intracellular GSH level (in words),[4],capable of regenerating an abnormally low intracellular level
